Drawing on article PMC5819394 (Proceedings of the National Academy of Sciences of the …, 2018), this text covers Km for 2 compounds.

In this experiment the test system is GenL. In kind it is biochemical, Micromonospora echinospora.

Structures are written as SMILES. Read-outs that look alike come from different tables or passages of the source.

As a reminder, the Km is the concentration of substrate that gives half-maximal velocity. As for `CN[C@@H]1[C@@H](O)[C@@H](O[C@@H]2[C@@H](O)[C@H](O[C@H]3O[C@H]([C@@H](C)N)CC[C@H]3N)[C@@H](N)C[C@H]2N)OC[C@]1(C)O` [C2], under “SAM as methyl donor, integrated Michaelis-Menten fit”, the Km was determined as 77.8 ± 8 µM.

As for `CN[C@@H]1[C@@H](O)[C@@H](O[C@@H]2[C@@H](O)[C@H](O[C@H]3O[C@H](CN)CC[C@H]3N)[C@@H](N)C[C@H]2N)OC[C@]1(C)O` [C1a], the Km turned out to be 347 ± 86 µM.
